Assay results as given in patent publication US12262716B2, “Herbicidal mixtures comprising L-glufosinate and their use in soybean cultures” (BASF SE, priority 2017, dated 2025).

How the values were obtained:
Format in all cases: in vivo
Cyperus iria = assay: Greenhouse pot test, post emergence treatment, herbicidal activity against CYPIR; settings: scale 0 to 100
Abutilon theophrasti = assay: Greenhouse pot test, post emergence treatment, herbicidal activity against ABUTH; settings: scale 0 to 100
Excerpt: (§1) Synergism can be described as an interaction where the combined effect of two or more compounds is greater than the sum of the individual effects of each of the compounds. The presence of a synergistic effect in terms of percent control, between two mixing partners (X and Y) can be calculated using the Colby equation (Colby, S. R., 1967, Calculating Synergistic and Antagonistic Responses in Herbicide Combinations, Weeds, 15, 21-22):
(§2) When the observed combined control effect is greater than the expected (calculated) combined control effect (E), then the combined effect is synergistic.
(§3) However, the weed control afforded by the compounds, mixtures or compositions is not limited to these species. The analysis of synergism or antagonism between the mixtures or compositions was determined using Colby's equation.
(§4) The culture containers used were plastic flowerpots containing loamy sand with approximately 3.0% of humus as the substrate. The seeds of the test plants were sown separately for each species and/or resistant biotype. For the pre-emergence treatment, the active ingredients, which had been suspended or emulsified in water, were applied directly after sowing by means of finely distributing nozzles. The containers were irrigated gently to promote germination and growth and subsequently covered with transparent plastic hoods until the plants had rooted. This cover caused uniform germination of the test plants, unless this had been impaired by the active ingredients. For the post-emergence treatment, the test plants were first grown to a height of 3 to 15 cm, depending on the plant habit, and only then treated with the active ingredients which had been suspended or emulsified in water. For this purpose, the test plants were either sown directly and grown in the same containers, or they were first grown separately as seedlings and transplanted into the test containers a few days prior to treatment. Depending on the species, the plants were kept at 10-25 ° C.or 20-35° C., respectively. The test period extended to 20 days after treatment. During this time, the plants were tended, and their response to the individual treatments was evaluated. The evaluation was carried out by using a scale from 0 to 100. 100 means no emergence of the plants or complete destruction of at least the above-ground parts, and 0 means no damage, or normal course of growth. Data shown are the mean of two replications.
• L-Glufosinate: 5% EC formulation • Saflufenacil: 342 g/l SC formulation • Compound II-89: 5% EC formulation (Compound II-89: ethyl [3-[2-chloro-4-fluoro-5-(1-methyl-6-trifluoromethyl-2,4-dioxo-1,2,3,4-tetrahydropyrimidin-3-yl)phenoxy]-2-pyridyloxy]acetate) • Trifludimoxazin: 500 g/l SC formulation • Pyroxasulfone: 85% WG formulation • Pethoxamid: 5% EC formulation • Sulfentrazone: 480 g/l SC formulation Weeds in the Study: […]

Avena fatua = assay: Greenhouse pot test, post emergence treatment, herbicidal activity against AVEFA; settings: scale 0 to 100
Excerpt: as §1, §2, §3
as §4, with “replications. […]” for “replications.”

Echinochloa crus-galli = assay: Greenhouse pot test, post emergence treatment, herbicidal activity against ECHCG; settings: scale 0 to 100
Excerpt: as §1, §2, §3
as §4, with “Depending on the species, the plants were kept at 10-25 ° C.or 20-35° C., respectively. The test period extended to 20 days after treatment.” left out, “The evaluation was carried out by using a scale from 0 to 100. 100 means no emergence of the plants or complete destruction of at least the above-ground parts, and 0 means no damage, or normal course of growth. Data shown are the mean of two replications.” left out

[1] = system: Erigeron Canadensis, Conyza canadensis; assay: Greenhouse pot test, post emergence treatment, herbicidal activity against ERICA; settings: L-Glufosinate 75 g ai/ha, scale 0 to 100

CCOC(=O)COc1ncccc1Oc1cc(-n2c(=O)cc(C(F)(F)F)n(C)c2=O)c(F)cc1Cl [Compound II-89, ethyl [3-[2-chloro-4-fluoro-5-(1-methyl-6-trifluoromethyl-2,4-dioxo-1,2,3,4-tetrahydropyrimidin-3-yl)phenoxy]-2-pyridyloxy]acetate] was tested, and the “Herbicidal activity against CYPIR, Found” value (Cyperus iria; Compound II-89 0.25 g ai/ha) was 0.
In the case of CP(=O)(O)CC[C@H](N)C(=O)O [L-Glufosinate, (2S)-2-amino-4-[hydroxy(methyl)phosphinoyl]butyric acid], the “Herbicidal activity against CYPIR, Found” value (Cyperus iria; L-Glufosinate 200 g ai/ha) is reported as 0, the “Herbicidal activity against ABUTH, Found” value (Abutilon theophrasti; L-Glufosinate 75 g ai/ha) is reported as 0 and the “Herbicidal activity against ABUTH, Found” value (Abutilon theophrasti; L-Glufosinate 150 g ai/ha) is reported as 55. The “Herbicidal activity against ABUTH, Found” value (Abutilon theophrasti; L-Glufosinate 200 g ai/ha) was 65, the “Herbicidal activity against AVEFA, Found” value (Avena fatua; L-Glufosinate 75 g ai/ha) was 0 and the “Herbicidal activity against AVEFA, Found” value (Avena fatua; L-Glufosinate 150 g ai/ha) was 0. For the same molecule, the “Herbicidal activity against ECHCG, Found” value (Echinochloa crus-galli; L-Glufosinate 200 g ai/ha) was 0, the “Herbicidal activity against ECHCG, Found” value (Echinochloa crus-galli; L-Glufosinate 400 g ai/ha) was 65 and the “Herbicidal activity against ERICA, Found” value [1] was 90.
With CCOCCN(C(=O)CCl)C(=C(C)C)c1ccccc1 [Pethoxamid, pethoxamid] the “Herbicidal activity against ABUTH, Found” value (Abutilon theophrasti; Pethoxamid 50 g ai/ha) was 0, the “Herbicidal activity against ABUTH, Found” value (Abutilon theophrasti; Pethoxamid 100 g ai/ha) was 0 and the “Herbicidal activity against AVEFA, Found” value (Avena fatua; Pethoxamid 50 g ai/ha) was 0. The “Herbicidal activity against AVEFA, Found” value (Avena fatua; Pethoxamid 100 g ai/ha) was 0.
With C#CCN1C(=O)C(F)(F)Oc2cc(F)c(-n3c(=O)n(C)c(=S)n(C)c3=O)cc21 [Trifludimoxazin, trifludimoxazin] the “Herbicidal activity against ECHCG, Found” value (Echinochloa crus-galli; Trifludimoxazin 0.25 g ai/ha) was 10.
